Results published in publication PMC9519442, “Genotype–phenotype correlations in WHIM syndrome: a systematic characterization of CXCR4^WHIM variants” (Genes and Immunity, 2022).

What was measured:
WT CXCR4 = molecular target: T1, WT CXCR4 (Homo sapiens, UniProt P61073); assay: Ca2+ mobilization assay, K562 cells with stable CXCR4 expression; format: cell-based; conditions: K562, read-out: Emax (% inhibition) of mavorixafor, Ca2+ mobilization
T1 construct: cloned into pcDNA3.1(Hygro+) via NheI/EcoRV to give pcDNA3.1_CXCR4; expressed in transfected cells; host or cells: K562
T1 sequence (P61073 whole entry): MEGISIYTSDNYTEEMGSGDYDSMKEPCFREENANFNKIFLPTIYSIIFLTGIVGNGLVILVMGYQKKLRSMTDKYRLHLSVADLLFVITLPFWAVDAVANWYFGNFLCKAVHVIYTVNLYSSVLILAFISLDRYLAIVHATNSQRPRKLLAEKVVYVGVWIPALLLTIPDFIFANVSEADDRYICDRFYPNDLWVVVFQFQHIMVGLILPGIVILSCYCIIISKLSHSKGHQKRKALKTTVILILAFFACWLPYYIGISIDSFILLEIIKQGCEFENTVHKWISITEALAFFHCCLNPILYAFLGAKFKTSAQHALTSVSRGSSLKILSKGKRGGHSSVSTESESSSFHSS
Protocol: (§1) Stable K562 clones expressing CXCR4 (1 × 10^5 cells/well) were seeded in black 96-well plates with transparent bottom coated with poly-L-lysine (BioCoat®, Corning) and serum-starved for 24 h. Medium was removed and cells were loaded with 100 µl of fluo-4 AM (3 µM, Invitrogen) dye solution for 45 min at 37 °C. Dye solution was prepared by diluting fluo-4 powder in DMSO + 10% Pluronic F127 (Thermo Fisher Scientific, Waltham, Massachusetts, USA) to 3 mM and then preparing the final dilution in assay buffer (HBSS with Ca^2+ and Mg^2+, 20 mM HEPES, 0.375 g/l NaHCO3, 0.1% BSA + 0.77 g/L probenecid [Thermo Fisher Scientific]). Subsequently, 100 µl of assay buffer alone or assay buffer with compound dilutions was added and the plates were equilibrated in the plate reader for an additional 20 min at 37 °C. Jurkat cells (3 × 10^5 cells/well) were incubated with the Screen Quest Calbryte-520 Probenecid-Free and Wash-Free Calcium Assay Kit (AAT Bioquest, Sunnyvale, California, USA) according to manufacturer’s instructions. […] Raw traces were analyzed in SoftMax Pro 7 Software (Molecular Devices). The arbitrary units were calculated as the difference between maximal and minimal signal after treatment injection, normalized to the baseline signal before injection. Maximal effect (Emax) and half-maximal effective and inhibitory concentrations (EC50 and IC50, respectively) were calculated in Prism (GraphPad Software, San Diego, California, USA).

CXCR4 S324V fs*20 = molecular target: T2, CXCR4 S324V fs*20 (Homo sapiens, UniProt P61073); assay: as above; format: cell-based; conditions: K562, read-out: Emax (% inhibition) of mavorixafor, Ca2+ mobilization
T2 construct: expressed in transfected cells; host or cells: K562
T2 sequence (P61073 with tags, fused parts or gaps, stated change not applied): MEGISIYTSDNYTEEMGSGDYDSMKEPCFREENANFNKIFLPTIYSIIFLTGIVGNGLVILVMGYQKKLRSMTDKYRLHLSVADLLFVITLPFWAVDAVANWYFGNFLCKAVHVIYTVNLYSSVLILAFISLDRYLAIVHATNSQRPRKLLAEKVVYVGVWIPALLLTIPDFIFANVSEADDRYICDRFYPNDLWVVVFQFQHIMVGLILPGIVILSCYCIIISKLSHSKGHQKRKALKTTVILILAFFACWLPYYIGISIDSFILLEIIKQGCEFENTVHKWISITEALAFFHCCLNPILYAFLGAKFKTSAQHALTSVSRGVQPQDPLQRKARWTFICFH
Protocol: as §1

CXCR4 V320E fs*23 = molecular target: T3, CXCR4 V320E fs*23 (Homo sapiens, UniProt P61073); assay: as above; format: cell-based; conditions: K562, read-out: Emax (% inhibition) of mavorixafor, Ca2+ mobilization
T3 construct: expressed in transfected cells; host or cells: K562
T3 sequence (P61073 with tags, fused parts or gaps, stated change not applied): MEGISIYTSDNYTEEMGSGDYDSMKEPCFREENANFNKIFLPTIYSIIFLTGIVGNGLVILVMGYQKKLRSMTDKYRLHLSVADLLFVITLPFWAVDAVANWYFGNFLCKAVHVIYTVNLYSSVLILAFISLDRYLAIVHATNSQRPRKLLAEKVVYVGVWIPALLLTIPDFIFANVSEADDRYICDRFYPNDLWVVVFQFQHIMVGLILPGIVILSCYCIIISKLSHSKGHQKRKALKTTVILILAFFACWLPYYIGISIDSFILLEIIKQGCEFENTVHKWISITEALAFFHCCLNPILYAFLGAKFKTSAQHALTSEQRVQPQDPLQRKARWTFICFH
Protocol: as §1

CXCR4 T318P fs*3 = molecular target: T4, CXCR4 T318P fs*3 (Homo sapiens, UniProt P61073); assay: as above; format: cell-based; conditions: K562, read-out: Emax (% inhibition) of mavorixafor, Ca2+ mobilization
T4 construct: expressed in transfected cells; host or cells: K562
T4 sequence (P61073 with tags, fused parts or gaps, stated change not applied): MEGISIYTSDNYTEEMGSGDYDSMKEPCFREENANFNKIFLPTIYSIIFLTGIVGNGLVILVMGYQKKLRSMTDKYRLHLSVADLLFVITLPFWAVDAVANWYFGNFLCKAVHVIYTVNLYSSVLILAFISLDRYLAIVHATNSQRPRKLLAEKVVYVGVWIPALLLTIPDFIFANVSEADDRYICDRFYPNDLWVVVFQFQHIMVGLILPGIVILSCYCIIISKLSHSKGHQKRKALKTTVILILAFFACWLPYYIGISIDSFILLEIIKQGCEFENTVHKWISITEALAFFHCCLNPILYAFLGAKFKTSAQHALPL
Protocol: as §1

CXCR4 S319C fs*24 = molecular target: T5, CXCR4 S319C fs*24 (Homo sapiens, UniProt P61073); assay: as above; format: cell-based; conditions: K562, read-out: Emax (% inhibition) of mavorixafor, Ca2+ mobilization
T5 construct: expressed in transfected cells; host or cells: K562
T5 sequence (P61073 with tags, fused parts or gaps, stated change not applied): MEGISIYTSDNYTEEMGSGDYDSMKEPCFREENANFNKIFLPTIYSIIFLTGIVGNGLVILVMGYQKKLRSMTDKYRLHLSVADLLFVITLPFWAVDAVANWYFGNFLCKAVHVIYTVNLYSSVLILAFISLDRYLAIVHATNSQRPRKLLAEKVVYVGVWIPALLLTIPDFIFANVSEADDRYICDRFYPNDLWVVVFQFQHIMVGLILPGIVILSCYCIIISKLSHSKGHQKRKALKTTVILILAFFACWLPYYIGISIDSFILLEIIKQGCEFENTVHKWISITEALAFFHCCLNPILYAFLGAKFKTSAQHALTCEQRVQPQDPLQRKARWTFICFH
Protocol: as §1

CXCR4 S341P fs*25 = molecular target: T6, CXCR4 S341P fs*25 (Homo sapiens, UniProt P61073); assay: as above; format: cell-based; conditions: K562, read-out: Emax (% inhibition) of mavorixafor, Ca2+ mobilization
T6 construct: expressed in transfected cells; host or cells: K562
T6 sequence (P61073 with tags, fused parts or gaps, stated change not applied): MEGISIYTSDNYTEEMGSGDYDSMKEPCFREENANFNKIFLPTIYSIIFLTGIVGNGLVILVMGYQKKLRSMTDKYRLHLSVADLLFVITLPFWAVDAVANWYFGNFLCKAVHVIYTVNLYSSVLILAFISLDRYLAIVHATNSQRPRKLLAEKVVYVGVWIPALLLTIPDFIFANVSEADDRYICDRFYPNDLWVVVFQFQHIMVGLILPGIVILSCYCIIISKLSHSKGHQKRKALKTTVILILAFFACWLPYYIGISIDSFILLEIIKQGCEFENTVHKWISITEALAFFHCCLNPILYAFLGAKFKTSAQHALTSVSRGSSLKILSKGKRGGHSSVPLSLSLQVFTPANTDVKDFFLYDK
Protocol: as §1

CXCR4 S338X = molecular target: T7, CXCR4 S338X (Homo sapiens, UniProt P61073); assay: as above; format: cell-based; conditions: K562, read-out: Emax (% inhibition) of mavorixafor, Ca2+ mobilization
T7 construct: expressed in transfected cells; host or cells: K562
T7 sequence (P61073 1-337 limits assumed): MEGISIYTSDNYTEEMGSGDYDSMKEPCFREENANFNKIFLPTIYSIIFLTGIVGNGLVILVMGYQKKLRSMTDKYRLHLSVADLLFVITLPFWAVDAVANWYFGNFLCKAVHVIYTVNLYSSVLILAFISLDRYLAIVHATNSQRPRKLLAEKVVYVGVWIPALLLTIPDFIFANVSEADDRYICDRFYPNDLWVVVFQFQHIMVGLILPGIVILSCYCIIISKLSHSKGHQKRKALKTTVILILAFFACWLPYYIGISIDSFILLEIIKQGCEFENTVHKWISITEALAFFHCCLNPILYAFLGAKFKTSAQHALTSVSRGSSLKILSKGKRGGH
Protocol: as §1

CXCR4 S339C fs*4 = molecular target: T8, CXCR4 S339C fs*4 (Homo sapiens, UniProt P61073); assay: as above; format: cell-based; conditions: K562, read-out: Emax (% inhibition) of mavorixafor, Ca2+ mobilization
T8 construct: expressed in transfected cells; host or cells: K562
T8 sequence (P61073 with tags, fused parts or gaps, stated change not applied): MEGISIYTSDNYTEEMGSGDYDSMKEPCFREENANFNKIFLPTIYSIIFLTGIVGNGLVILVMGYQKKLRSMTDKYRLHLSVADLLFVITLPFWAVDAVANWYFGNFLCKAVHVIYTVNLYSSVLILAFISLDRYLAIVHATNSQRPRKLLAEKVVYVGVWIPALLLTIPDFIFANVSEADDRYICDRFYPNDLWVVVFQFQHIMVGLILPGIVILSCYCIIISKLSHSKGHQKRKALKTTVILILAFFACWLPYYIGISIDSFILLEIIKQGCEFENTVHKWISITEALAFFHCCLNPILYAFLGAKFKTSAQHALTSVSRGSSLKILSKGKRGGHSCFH
Protocol: as §1

CXCR4 R334X = molecular target: T9, CXCR4 R334X (Homo sapiens, UniProt P61073); assay: as above; format: cell-based; conditions: K562, read-out: Emax (% inhibition) of mavorixafor, Ca2+ mobilization
T9 construct: expressed in transfected cells; host or cells: K562
T9 sequence (P61073 1-333 limits assumed): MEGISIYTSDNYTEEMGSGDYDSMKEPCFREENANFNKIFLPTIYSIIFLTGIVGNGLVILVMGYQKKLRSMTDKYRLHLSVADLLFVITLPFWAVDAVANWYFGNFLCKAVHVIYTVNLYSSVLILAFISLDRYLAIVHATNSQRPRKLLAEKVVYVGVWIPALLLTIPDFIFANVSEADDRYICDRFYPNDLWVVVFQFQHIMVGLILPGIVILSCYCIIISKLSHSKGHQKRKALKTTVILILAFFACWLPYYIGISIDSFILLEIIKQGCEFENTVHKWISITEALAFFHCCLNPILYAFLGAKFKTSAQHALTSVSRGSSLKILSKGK
Protocol: as §1

CXCR4 S339F fs*6 = molecular target: T10, CXCR4 S339F fs*6 (Homo sapiens, UniProt P61073); assay: as above; format: cell-based; conditions: K562, read-out: Emax (% inhibition) of mavorixafor, Ca2+ mobilization
T10 construct: expressed in transfected cells; host or cells: K562
T10 sequence (P61073 with tags, fused parts or gaps, stated change not applied): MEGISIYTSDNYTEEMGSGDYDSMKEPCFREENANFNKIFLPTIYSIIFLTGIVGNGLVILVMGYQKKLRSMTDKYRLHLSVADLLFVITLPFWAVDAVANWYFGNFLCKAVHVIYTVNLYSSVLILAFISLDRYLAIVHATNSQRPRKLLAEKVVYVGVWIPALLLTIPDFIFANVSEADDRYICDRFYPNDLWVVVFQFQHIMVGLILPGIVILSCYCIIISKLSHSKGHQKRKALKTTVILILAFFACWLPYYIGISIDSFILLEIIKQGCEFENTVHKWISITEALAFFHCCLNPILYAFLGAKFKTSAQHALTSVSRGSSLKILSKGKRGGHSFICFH
Protocol: as §1

CXCR4 L329Q fs*13 = molecular target: T11, CXCR4 L329Q fs*13 (Homo sapiens, UniProt P61073); assay: as above; format: cell-based; conditions: K562, read-out: Emax (% inhibition) of mavorixafor, Ca2+ mobilization
T11 construct: expressed in transfected cells; host or cells: K562
T11 sequence (P61073 with tags, fused parts or gaps, stated change not applied): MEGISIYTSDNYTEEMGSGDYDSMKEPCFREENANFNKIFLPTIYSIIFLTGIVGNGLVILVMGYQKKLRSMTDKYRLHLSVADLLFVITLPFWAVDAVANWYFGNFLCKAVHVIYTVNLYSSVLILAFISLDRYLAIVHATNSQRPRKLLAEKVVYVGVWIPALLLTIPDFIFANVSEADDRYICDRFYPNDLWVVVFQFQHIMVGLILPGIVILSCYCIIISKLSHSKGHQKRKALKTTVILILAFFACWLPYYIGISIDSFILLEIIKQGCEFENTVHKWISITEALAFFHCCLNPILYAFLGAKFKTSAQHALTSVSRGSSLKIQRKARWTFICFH
Protocol: as §1

CXCR4 E343X = molecular target: T12, CXCR4 E343X (Homo sapiens, UniProt P61073); assay: as above; format: cell-based; conditions: K562, read-out: Emax (% inhibition) of mavorixafor, Ca2+ mobilization
T12 construct: expressed in transfected cells; host or cells: K562
T12 sequence (P61073 1-342 limits assumed): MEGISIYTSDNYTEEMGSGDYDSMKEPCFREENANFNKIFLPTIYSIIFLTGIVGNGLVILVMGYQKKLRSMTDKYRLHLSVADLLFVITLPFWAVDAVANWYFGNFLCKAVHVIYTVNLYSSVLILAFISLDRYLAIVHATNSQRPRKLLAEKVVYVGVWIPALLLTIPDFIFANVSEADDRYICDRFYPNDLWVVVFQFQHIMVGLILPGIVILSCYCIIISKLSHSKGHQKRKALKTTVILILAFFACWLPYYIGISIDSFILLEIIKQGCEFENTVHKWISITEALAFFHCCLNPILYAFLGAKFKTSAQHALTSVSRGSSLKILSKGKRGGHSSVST
Protocol: as §1

CXCR4 E343K = molecular target: T13, CXCR4 E343K (Homo sapiens, UniProt P61073, E343K); assay: as above; format: cell-based; conditions: K562, read-out: Emax (% inhibition) of mavorixafor, Ca2+ mobilization
T13 construct: expressed in transfected cells; host or cells: K562
T13 sequence (P61073 whole entry E343K): as the sequence (P61073 whole entry) above, with E343K counted along it
Protocol: as §1

CXCR4 G336X = molecular target: T14, CXCR4 G336X (Homo sapiens, UniProt P61073); assay: as above; format: cell-based; conditions: K562, read-out: Emax (% inhibition) of mavorixafor, Ca2+ mobilization
T14 construct: expressed in transfected cells; host or cells: K562
T14 sequence (P61073 1-335 limits assumed): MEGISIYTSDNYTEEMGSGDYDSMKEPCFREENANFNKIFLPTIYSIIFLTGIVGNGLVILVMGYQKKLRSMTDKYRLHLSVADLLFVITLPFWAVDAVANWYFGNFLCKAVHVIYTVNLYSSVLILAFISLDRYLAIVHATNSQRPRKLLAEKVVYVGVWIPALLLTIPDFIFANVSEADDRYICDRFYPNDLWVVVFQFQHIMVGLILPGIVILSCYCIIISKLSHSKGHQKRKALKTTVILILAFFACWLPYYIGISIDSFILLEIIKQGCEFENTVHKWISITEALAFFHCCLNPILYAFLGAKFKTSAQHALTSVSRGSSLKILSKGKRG
Protocol: as §1

[1] = molecular target: CXCR4 (WT/WT, RX/WT, RX/RX Jurkat cells) (Homo sapiens, UniProt P61073); assay: ERK activation assay (phosphoflow), all Jurkat cell lines tested; format: cell-based; conditions: 40 nM, 200 nM or 1 µM mavorixafor, 10 nM CXCL12 for 5 min
CXCR4 (WT/WT, RX/WT, RX/RX Jurkat cells), sequence (P61073 1-333 limits assumed): as the sequence (P61073 1-333 limits assumed) above
Protocol: (§2) Stable K562 clones expressing CXCR4 or Jurkat cells were seeded in starvation medium in 96-well plates overnight. After treatment, the cells were fixed with fixation solution (eBioscience, Thermo Fisher Scientific, Waltham, Massachusetts, USA) for 10 min at room temperature, then permeabilized for 5 min with ice-cold methanol on ice followed by a washing step with wash/permeabilization solution (eBioscience, Thermo Fisher Scientific, Waltham, Massachusetts, USA). Cells were then stained with Alexa Fluor 647 Mouse Anti-ERK1/2 (Product code 612593, pT202/pY204, 1/10 dilution, BD Biosciences) and Alexa Fluor 488 Mouse anti-Akt (Product code 560404, pS473, 1/10 dilution, BD Biosciences) for 1 h at room temperature in the dark. Cells were then washed 2 times in wash/permeabilization solution and resuspended in flow buffer (HBSS with Ca^2+ and Mg^2+ + 0.1% BSA + 20 mM HEPES pH 7.4). Samples were measured via flow cytometry (CytoFLEX Flow Cytometer) and analyzed in FCS Express software. After gating cells based on the FCS/SSC, MFI of the respective staining was exported for further analysis.

[2] = molecular target: CXCR4 (WT/WT, RX/WT, RX/RX) (Homo sapiens, UniProt P61073); assay: Ligand binding inhibition assay (AF647-CXCL12), Jurkat cells, across all cell lines
CXCR4 (WT/WT, RX/WT, RX/RX), sequence (P61073 1-333 limits assumed): as above
Protocol: Jurkat cells were washed once with assay buffer (HBSS + 20 mM HEPES buffer +0.2% BSA, pH 7.4) and then incubated for 15 min at room temperature with test compound diluted in assay buffer at dose-dependent concentrations. […] The cells were incubated for 30 min at room temperature. Thereafter, the cells were washed twice in assay buffer, fixed with 1% paraformaldehyde in PBS, and analyzed by flow cytometry (Cytoflex). […] The percentage of inhibition was calculated according to the formula: [1-((MFI-MFINC)/(MFIPC-MFINC))]*100 where MFI is the mean fluorescence intensity of cells in the presence of an inhibitor, MFINC is mean fluorescence intensity of cells in the absence of the ligand and MFIPC is mean fluorescence intensity of cells in the presence of the ligand alone.

[3] = molecular target: T15, R334X/R334X CXCR4 (RX/RX Jurkat cells) (Homo sapiens, UniProt P61073); assay: ERK activation assay (phosphoflow p-T202/Y204 ERK), Jurkat cells; format: cell-based; conditions: 10 nM CXCL12 for 5 min
T15 construct: a cellular model of homozygous and heterozygous R334X CXCR4 in an endogenous locus; host or cells: Jurkat (E6-1, ATCC), CRISPR-Cas9 clones A3 and B5 (RX/RX)
T15 sequence (P61073 1-333 limits assumed): as above
Protocol: as §2

[4] = molecular target: T16, R334X/WT CXCR4 (RX/WT Jurkat cells) (Homo sapiens, UniProt P61073); assay: as above; format: cell-based; conditions: 10 nM CXCL12 for 5 min
T16 construct: cells endogenously expressing WT, R334X/WT or R334X/R334X CXCR4 at similar levels; endogenous in cells; host or cells: Jurkat E6-1 clone B2 (CRISPR-Cas9 edited, made at Applied StemCell)
T16 sequence (P61073 1-333 limits assumed): as above
T16 sequence (P61073 whole entry): as the sequence (P61073 whole entry) above
Protocol: as §2

[5] = system: WT CXCR4 and CXCR4^WHIM variants; assay: AKT activation assay (phosphoflow p-S473 AKT), K562 cells with stable CXCR4 expression; format: cell-based, human; conditions: 40 nM, 200 nM or 1 µM mavorixafor, 10 nM CXCL12 for 5 min
Protocol: as §2

all CXCR4^WHIM variants = all CXCR4^WHIM variants (Homo sapiens, UniProt P61073); assay: Ca2+ mobilization assay, K562 cells, pooled over variants; format: cell-based; conditions: K562, read-out: Emax of mavorixafor, Ca2+ mobilization, range over variants
Protocol: as §1, with “°C.” for “°C. Jurkat cells (3 × 10^5 cells/well) were incubated with the Screen Quest Calbryte-520 Probenecid-Free and Wash-Free Calcium Assay Kit (AAT Bioquest, Sunnyvale, California, USA) according to manufacturer’s instructions.”

[6] = system: WT CXCR4 and CXCR4^WHIM variants; assay: ERK activation assay (phosphoflow p-T202/Y204 ERK), K562 cells with stable CXCR4 expression; format: cell-based, human; conditions: 40 nM, 200 nM or 1 µM mavorixafor, 10 nM CXCL12 for 5 min
Protocol: as §2

## NCCCCN(Cc1nc2ccccc2[nH]1)[C@H]1CCCc2cccnc21 [mavorixafor]
WT CXCR4
  Emax: 84%
CXCR4 S324V fs*20
  Emax: 58%
CXCR4 V320E fs*23
  Emax: 65%
CXCR4 T318P fs*3
  Emax: 88%
CXCR4 S319C fs*24
  Emax: 76%
CXCR4 S341P fs*25
  Emax: 57%
CXCR4 S338X
  Emax: 89%
CXCR4 S339C fs*4
  Emax: 77%
CXCR4 R334X
  Emax: 72%
CXCR4 S339F fs*6
  Emax: 59%
CXCR4 L329Q fs*13
  Emax: 51%
CXCR4 E343X
  Emax: 90%
CXCR4 E343K
  Emax: 66%
CXCR4 G336X
  Emax: 82%
[1]
  Effect on CXCL12-stimulated ERK activation: inhibited
[2]
  Efficacy of inhibition of CXCL12 binding to CXCR4: 100%
[3]
  Concentration that normalized the hyperactive ERK signaling: 200 nM
[4]
  Concentration that normalized the hyperactive ERK signaling: 40 nM
[5]
  Effect on CXCL12-dependent AKT activation: inhibited
All CXCR4^WHIM variants
  Emax: 51 to 90%
[6]
  Effect on CXCL12-dependent ERK activation: inhibited
